Experimental data published in patent publication US10913738B2 (BRISTOL-MYERS SQUIBB COMPANY, priority 2017, dated 2021).
pIC50: −log10 of the molar value. Read-outs that look alike come from different tables or passages of the source.

How the values were obtained:
[1] = molecular target: T1, His-GST-TVMV-hRIPK1(1-324) (Homo sapiens, UniProt Q13546); test: RIPK1 HTRF Binding Assay
T1 construct: The coding region of human RIPK1(1-324) flanked by NdeI site at 5′ end; made in house; host or cells: Spodoptera frugiperda (Sf9) insect cells, baculovirus
T1 sequence (Q13546 1-324): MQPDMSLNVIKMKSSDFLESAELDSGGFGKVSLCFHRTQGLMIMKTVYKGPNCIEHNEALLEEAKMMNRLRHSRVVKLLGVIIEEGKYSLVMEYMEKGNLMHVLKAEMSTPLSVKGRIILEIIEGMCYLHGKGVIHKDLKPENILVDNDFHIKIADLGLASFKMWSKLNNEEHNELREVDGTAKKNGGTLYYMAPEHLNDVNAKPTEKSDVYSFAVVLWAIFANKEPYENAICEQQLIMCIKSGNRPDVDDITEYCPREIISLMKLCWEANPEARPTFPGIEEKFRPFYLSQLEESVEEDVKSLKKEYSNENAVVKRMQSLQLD

[2] = tested on: MLKL phosphorylation in HT29-L23 human colorectal adenocarcinoma cells; test: MLKL Phosphorylation High-Content Assay; assay type: cell-based; conditions: Homo sapiens
Procedure, shortened: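 IC50 and Ymax obtained by 4-parameter logistic fitting of MLKL phosphorylation, measured as mean circ-ring average intensity ratio from high-content images. Staining used an anti-phospho-S358 MLKL antibody overnight at 4° C., following six-hour cell incubation at 37° C.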

[3] = tested on: Female C57/Bl6 mice, mTNF + zVAD-fmk induced hypothermia; test: TNF-Induced Systemic Inflammatory Response Syndrome (SIRS), body temperature; assay type: in vivo; conditions: mouse, 3 h after mTNF, relative to 6 mg/kg Nec-1s, read-out: % protection from body temp loss; for inhibition in vivo at 0.4 mg/kg: 0.4 mg/kg oral gavage 2 h before mTNF; for inhibition in vivo at 1 mg/kg: 1.0 mg/kg oral gavage 2 h before mTNF
Procedure: (§1) TNF-Induced Systemic Inflammatory Response Syndrome (SIRS)
(§2) RIPK1 inhibitors were evaluated for efficacy in vivo using a TNF-dependent model of systemic “shock”, also known as systemic inflammatory response syndrome (SIRS) (Duprez et al. 2011, Immunity 35(6):908-918). Intravenous injection of murine TNF induces a systemic inflammatory response characterized by a decrease in body temperature and an increase in circulating cytokines (IL-6, KC) in the serum. The addition of zVAD-fmk strongly sensitizes mice to TNF-induced shock through the inhibition of caspases (Cauwels et al., 2003). The combination of pretreatment with zVAD-fmk prior to injection of mTNF forms the basis of the RIPK1-dependent, TNF-induced, inflammatory response in this model.
(§3) Female C57/Bl6 mice (9 to 11 weeks old) were obtained from Jackson Labs (Bar Harbor, Me.). Mice were housed in BMS' animal facility with ad libitum access to food and water. Mice were and allowed to acclimate for at least 2 weeks and typically weighed at least 21 grams before being used in any studies. Group size was 6 mice per treatment. All experiments were conducted with the approval of BMS' Institutional Animal Care and Use Committee (IACUC)
(§4) Program compounds were dosed by oral gavage 2 h before IV challenge with 20 μg of murine TNF (#CRT192C, Cell Sciences, Canton, Mass.). zVAD-fmk (16.7 mg/kg) was given IV, 15 min before mTNF injection. The RIPK1 kinase inhibitor, necrostatin-1s (Nec-1s) was used as a positive control and was dosed at 6 mg/kg, IV, 30 minutes before mTNF challenge. mTNF was diluted in endotoxin-free PBS and 20 μg/mouse was injected in a volume of 0.1 ml into the retro-orbital sinus. All IV injections were done via the retro-orbital sinus and injection sites were alternated (left and right sides).
Three (3) hours after mTNF injection, mice were assessed for hypothermia and mortality. Rectal body temperature was recorded with an electric thermometer (Acorn Series Model JKT with a Ret-3 probe, Oakton Instruments Vernon Hills Ill. 60061).
(§5) Using these assays, the percent protection of body temperature and percent reduction in IL6 cytokine of the following compounds were determined. See Table B. % Protection is relative to a 6 mg/kg dose of Nec-1s (5-((7-Cl-1H-indol-3-yl)methyl)-3-methylimidazolidine-2,4-dione)).

IL-6 = test: TNF-Induced SIRS, serum cytokines (IL-6, KC) by ELISA; assay type: in vivo; conditions: mouse, relative to 6 mg/kg Nec-1s, read-out: % protection from IL6 increase; for inhibition in vivo at 0.4 mg/kg: 0.4 mg/kg oral gavage 2 h before mTNF; for inhibition in vivo at 1 mg/kg: 1.0 mg/kg oral gavage 2 h before mTNF
Procedure: as §1, §2, §3, §4
(§6) Blood samples for PK determination were collected into heparinized microtainer blood tubes (Part #365965, Becton Dickinson, Franklin Lakes N.J.) and mixed well. Dried blood spots (DBS) were prepared by pipetting 10 μl of whole blood, in duplicate, onto bioanalysis cards (#GR2261004, Perkin Elmer, Greenville, S.C.). A serum sample was obtained by collecting blood into a separator tube (#450472, Greiner Bio-One, Austria) and centrifuged (10 min at 10,000 RPM) to separate the serum. All blood samples were obtained from the retro-orbital sinus while under isoflurane anesthesia.
Serum cytokines were evaluated by ELISA assay. IL-6 was measured using OPTeia Kit (Becton Dickinson, Franklin Lakes N.J.) while KC was measured using an R&D Duoset kit (R&D Systems Inc. Minneapolis, Minn.)
as §5

[4] = Exposure in TNF-induced SIRS study (blood samples for PK determination); assay type: in vivo; conditions: mouse
Procedure: as §4, §6

[5] = x marks IC50 class <20 nM, read-out: RIPK1 HTRF binding <20 nM
[6] = x marks IC50 class <20 nM, read-out: pMLKL cell activity <20 nM
[7] = 0.1 mg/kg oral gavage 2 h before mTNF
[8] = x marks IC50 class 20-200 nM, read-out: pMLKL cell activity 20-200 nM
[9] = x marks IC50 class 20-200 nM, read-out: RIPK1 HTRF binding 20-200 nM

Row | SMILES | pIC50 [1, 5] | pIC50 [2, 6] | inhibition in vivo at 0.4 mg/kg [3] | inhibition in vivo at 0.4 mg/kg (IL-6) | Exposure ([4]; 0.4 mg/kg oral gavage) | pIC50 [2, 8] | inhibition in vivo at 1 mg/kg [3] | inhibition in vivo at 1 mg/kg (IL-6) | Exposure ([4]; 1.0 mg/kg oral gavage) | pIC50 [1, 9] | further results
1 | COc1ncc(-c2ccn3nc(N)nc3c2)cc1C(=O)NCc1cc(F)cc(F)c1OCC1CC1 [Example 131, 5-{2-amino-[1,2,4]triazolo[1,5-a]pyridin-7-yl}-N-{[2-(cyclopropylmethoxy)-3,5-difluorophenyl]methyl}-2-methoxypyridine-3-carboxamide] | > 7.70 | > 7.70 | 15% | 8% | 50 nM |  |  |  |  |  | 
2 | COc1ncc(-c2ccn3nc(N)nc3c2)cc1C(=O)NC(C)c1ccccc1OC(F)(F)F (single isomer, unassigned) [Example 38-1, 5-{2-Amino-[1,2,4]triazolo[1,5-a]pyridin-7-yl}-2-methoxy-N-{1-[2-(trifluoromethoxy)phenyl]ethyl}pyridine-3-carboxamide] | > 7.70 | > 7.70 |  |  |  |  |  |  |  |  | inhibition in vivo at 0.1 mg/kg [3, 7]: 80%; inhibition in vivo at 0.1 mg/kg (IL-6; [7]): 93%; Exposure ([4]; 0.1 mg/kg oral gavage): 12 nM
3 | COc1ncc(-c2ccn3nc(N)nc3c2)cc1C(=O)NCc1cc(OC(F)(F)F)ccc1F [Example 160, 5-{2-amino-[1,2,4]triazolo[1,5-a]pyridin-7-yl}-N-{[2-fluoro-5-(trifluoromethoxy)phenyl]methyl}-2-methoxypyridin-3-carboxamide] | > 7.70 |  |  |  |  | 6.70 to 7.70 | 107% | 60% | 693 nM |  | 
4 | COc1ncc(-c2ccn3nc(N)nc3c2)cc1C(=O)NCCCc1ccccc1 [Example 102, 5-{2-amino-[1,2,4]triazolo[1,5-a]pyridin-7-yl}-2-methoxy-N-(4-phenylpropyl)pyridine-3-carboxamide] |  |  |  |  |  | 6.70 to 7.70 | 107% | 82% | 1287 nM | 6.70 to 7.70 | 
5 | Cc1ncc(-c2ccn3nc(N)nc3c2)cc1C(=O)NC(C)c1cccc(OC(F)(F)F)c1 (stereo not shown) [Example 251, 5-{2-amino-[1,2,4]triazolo[1,5-a]pyridin-7-yl}-2-methyl-N-{1-[3-(trifluoromethoxy)phenyl]ethyl}pyridine-3-carboxamide] |  |  |  |  |  | 6.70 to 7.70 | 86% | 97% | 1208 nM |  | 
6 | COc1ncc(-c2ccn3nc(N)nc3c2)cc1C(=O)N1CCC[C@@H](Cc2ccc(F)cc2)C1 [Example 136, 7-{5-[(3S)-3-[(4-fluorophenyl)methyl]piperidine-1-carbonyl]-6-methoxypyridin-3-yl}-[1,2,4]triazolo[1,5-a]pyridin-2-amine] | > 7.70 | > 7.70 | 106% | 80% | 364 nM |  |  |  |  |  | 
7 | COc1ncc(-c2ccn3nc(N)nc3c2)cc1C(=O)NCc1ccccc1OC(F)(F)F [Example 74, 5-{2-Amino-[1,2,4]triazolo[1,5-a]pyridin-7-yl}-2-methoxy-N-{[2-(trifluoromethoxy)phenyl]methyl}pyridine-3-carboxamide] | > 7.70 |  | 115% | 87% | 117 nM | 6.70 to 7.70 |  |  |  |  | 
8 | COc1ncc(-c2ccn3nc(N)nc3c2)cc1C(=O)NCc1cccc(OC(F)(F)F)c1 [Example 58, 5-{2-Amino-[1,2,4]triazolo[1,5-a]pyridin-7-yl}-2-methoxy-N-{[3-(trifluoromethoxy)phenyl]methyl}pyridine-3-carboxamide] | > 7.70 |  | 113% | 78% | 409 nM | 6.70 to 7.70 |  |  |  |  | 
9 | Cc1nc(C)c(-c2ccn3nc(N)nc3c2)cc1C(=O)NCc1cccc(OCC(F)(F)F)c1 [Example 293, 5-(2-amino-[1,2,4]triazolo[1,5-a]pyridin-7-yl)-2,6-dimethyl-N-(3-(2,2,2-trifluoroethoxy)benzyl)nicotinamide] |  |  |  |  |  | 6.70 to 7.70 |  |  |  | 6.70 to 7.70 | 
10 | Cc1ncc(-c2ccn3nc(N)nc3c2)cc1C(=O)NCc1cccc(OC(F)(F)F)c1 [Example 246, 5-{2-amino-[1,2,4]triazolo[1,5-a]pyridin-7-yl}-2-methyl-N-{[3-(trifluoromethoxy)phenyl]methyl}pyridine-3-carboxamide] |  |  |  |  |  |  |  |  |  | 6.70 to 7.70 | pIC50 ([2]; x marks IC50 class >200 nM, read-out: pMLKL cell activity >200 nM): < 6.70
